Results from patent US5968907A (priority 1997, dated 1999).

These compounds were tested against heat-labile enterotoxin from E. coli (Escherichia coli, UniProt P0CK94) (assay: not given). Settings: at the concentration employed in the assay.
Assay type: binding

Chain of heat-labile enterotoxin from E. coli (P0CK94 whole entry, looked up): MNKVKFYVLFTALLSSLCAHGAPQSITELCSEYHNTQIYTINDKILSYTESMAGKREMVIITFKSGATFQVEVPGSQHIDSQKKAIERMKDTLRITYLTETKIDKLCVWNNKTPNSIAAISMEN

| Compound | inhibition of binding of heat-labile enterotoxin to ganglioside GD1b |
| --- | --- |
| OC[C@H]1O[C@@H](SC2CCCCC2O)[C@H](O)[C@@H](O)[C@H]1O (stereo partly drawn) [Example A2, 2-Hydroxycyclohex-1-yl 1-Thio-β-D-galactopyranoside] | < 20% |
| CC1(C)CCC(S[C@@H]2O[C@H](CO)[C@H](O)[C@H](O)[C@H]2O)CC1O (stereo partly drawn) [Example A11, 4,4Dimethyl-3-hydroxycyclohex-1-yl 1-Thio-β-D-galactopyranoside] | at least 20% |
| CC1(C)CCC(S[C@@H]2O[C@H](CO)[C@H](O)[C@H](O)[C@H]2O)CC1N (stereo partly drawn) [Example B11, 3-Amino-4,4-dimethylcyclohex-1-yl 1-Thio-β-D-galactopyranoside] | at least 20% |
| CC(=O)NC1CCCCC1S[C@@H]1O[C@H](CO)[C@H](O)[C@H](O)[C@H]1O (stereo partly drawn) [Example C2, 2-Acetamidocyclohex-1-yl 1-Thio-β-D-galactopyranoside] | at least 20% |
| CC(=O)NC1CC(S[C@@H]2O[C@H](CO)[C@H](O)[C@H](O)[C@H]2O)CCC1(C)C (stereo partly drawn) [Example C11, 3-Acetamido-4,4-dimethylcyclohexyl 1-Thio-β-D-galactopyranoside] | at least 20% |
| O=C(O)c1ccccc1C(=O)NC1CCCCC1S[C@@H]1O[C@H](CO)[C@H](O)[C@H](O)[C@H]1O (stereo partly drawn) [Example D2, 2-(2-Carboxybenzamido)cyclohex-1-yl 1-Thio-β-D-galactopyranoside] | < 20% |
| O=C(O)c1ccccc1C(=O)NC1C2CCC(C2)C1CS[C@@H]1O[C@H](CO)[C@H](O)[C@H](O)[C@H]1O (stereo partly drawn) [Example D4, [3-(Carboxybenzamido)norborn-2-yl]methyl 1-Thio-β-D-galactopyranoside] | at least 20% |
| O=C(O)CNC1CCCCC1S[C@@H]1O[C@H](CO)[C@H](O)[C@H](O)[C@H]1O (stereo partly drawn) [Example E2, Nα-[2-(1-Thio-β-D-galactopyranosyl)cyclohex-1-yl]gIycine] | at least 20% |
| O=C(O)CNC1C2CCC(C2)C1CS[C@@H]1O[C@H](CO)[C@H](O)[C@H](O)[C@H]1O (stereo partly drawn) [Example E4, Nα-[3-((1-Thio-β-D-galactopyranosyl)methyl)norborn-2-yl]glycine] | at least 20% |

These compounds were tested against cholera toxin (Vibrio cholerae serotype O1, UniProt P01556) (assay: biochemical). Settings: read-out: inhibition of binding of cholera toxin to ganglioside GD1b.
Chain of cholera toxin (P01556 22-124 limits assumed): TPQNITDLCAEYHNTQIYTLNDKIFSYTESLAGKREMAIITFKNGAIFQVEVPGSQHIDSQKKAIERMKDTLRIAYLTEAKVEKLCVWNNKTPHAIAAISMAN

| Compound | inhibition at 1000 µg/mL |
| --- | --- |
| CC(CC(C)S[C@@H]1O[C@H](CO)[C@H](O)[C@H](O)[C@H]1O)NCC(=O)O (stereo partly drawn) [Example E8, Nα-[4-(1-Thio-β-D-galactopyranosyl)pent-2-yl]glycine] | < 20% |
| CC1(C)CCC(NCC(=O)O)CC1S[C@@H]1O[C@H](CO)[C@H](O)[C@H](O)[C@H]1O (stereo partly drawn) [Example E9, Nα-[4,4-Dimethyl-3-(1-thio-β-D-galactopyranosyl)-cyclohex-1-yl]glycine] | < 20% |
| CC1(C)CC(NCCC(=O)O)CC1S[C@@H]1O[C@H](CO)[C@H](O)[C@H](O)[C@H]1O (stereo partly drawn) [Example F6, Nβ-[4,4-Dimethyl-3-(1-thio-β-D-galactopyranosyl)-cyclopent-1-yl]-βalanine] | < 20% |
| CC1(C)CCC(NCCC(=O)O)CC1S[C@@H]1O[C@H](CO)[C@H](O)[C@H](O)[C@H]1O (stereo partly drawn) [Example F9, Nβ-[4,4Dimethyl-3-(1-thio-β-D-galactopyranosyl)-cyclohex-1-yl]-β-alanime] | < 20% |
| CC(C)C[C@H](NC(C)CC(S[C@@H]1O[C@H](CO)[C@H](O)[C@H](O)[C@H]1O)c1ccccc1)C(=O)O (stereo partly drawn) [Example G3, Nα-[4-Phenyl-4-(1-thio-β-galactopyranosyl)but-2-yl]-L-leucine] | < 20% |
| CC(C)C[C@H](NC1CCC(S[C@@H]2O[C@H](CO)[C@H](O)[C@H](O)[C@H]2O)C1)C(=O)O (stereo partly drawn) [Example G7, Nα-[3-(1-Thio-β-D-galactopyranosyl)cyclopent-1-yl]-L-leucine] | < 20% |
| CC(C)C[C@H](NC(C)CC(C)S[C@@H]1O[C@H](CO)[C@H](O)[C@H](O)[C@H]1O)C(=O)O (stereo partly drawn) [Example G8, Nα-[4-(1-Thio-β-D-galactopyranosyl)pent-2-yl]-L-leucine] | < 20% |
| CC(C)C[C@H](NC1CCC(C)(C)C(S[C@@H]2O[C@H](CO)[C@H](O)[C@H](O)[C@H]2O)C1)C(=O)O (stereo partly drawn) [Example G9, Nα-[4,4-Dimethyl-3-(1-thio-β-D-galactopyranosyl)-cyclohex-1-yl]-L-leucine] | < 20% |
| CC(C)C[C@H](NC1CCCC(S[C@@H]2O[C@H](CO)[C@H](O)[C@H](O)[C@H]2O)C1)C(=O)O (stereo partly drawn) [Example G10, Nα-[3-(1-Thio-β-D-galactopyranosyl)cyclohex-1-yl]-L-leucine] | < 20% |
| CC(CC(S[C@@H]1O[C@H](CO)[C@H](O)[C@H](O)[C@H]1O)c1ccccc1)N[C@@H](Cc1c[nH]c2ccccc12)C(=O)O (stereo partly drawn) [Example I3, Nα-[4-Phenyl-4-(1-thio-β-D-galactopyranosyl)but-2-yl]-L-tryptophan] | ≥ 20% |
| CC(CC(C)S[C@@H]1O[C@H](CO)[C@H](O)[C@H](O)[C@H]1O)N[C@@H](Cc1c[nH]c2ccccc12)C(=O)O (stereo partly drawn) [Example I8, Nα-[4-(1-Thio-β-D-galactopyranosyl)pent-2-yl]-L-tryptophan] | < 20% |
| CC1(C)CCC(N[C@@H](Cc2c[nH]c3ccccc23)C(=O)O)CC1S[C@@H]1O[C@H](CO)[C@H](O)[C@H](O)[C@H]1O (stereo partly drawn) [Example I9, Nα-[4,4-Dimethyl-3-(1-thio-β-D-galactopyranosyl)-cyclohex-1-yl]-L-tryptophan] | < 20% |
| O=C(O)[C@H](Cc1c[nH]c2ccccc12)NC1CCCC(S[C@@H]2O[C@H](CO)[C@H](O)[C@H](O)[C@H]2O)C1 (stereo partly drawn) [Example I10, Nα-[3-(1-Thio-β-D-galactopyranosyl)cyclohex-1-yl]-L-tryptophan] | < 20% |
| N=C(N)NCCC[C@H](NC1CCCC1S[C@@H]1O[C@H](CO)[C@H](O)[C@H](O)[C@H]1O)C(=O)O (stereo partly drawn) [Example J1, Nα-[2-(1-Thio-β-D-galactopyranosyl)cyclopent-1-yl]-L-arginine] | ≥ 20% |
| CC(CC(S[C@@H]1O[C@H](CO)[C@H](O)[C@H](O)[C@H]1O)c1ccccc1)N[C@@H](CCCNC(=N)N)C(=O)O (stereo partly drawn) [Example J3, Nα-[4-Phenyl-4-(1-Thio-β-D-galactopyranosyl)but-2-yl]-L-arginine] | ≥ 20% |
| N=C(N)NCCC[C@H](NC1CCCCC(S[C@@H]2O[C@H](CO)[C@H](O)[C@H](O)[C@H]2O)C1)C(=O)O (stereo partly drawn) [Example J5, Nα-[3-(1-Thio-β-D-galactopyranosyl)cyclohept-1-yl]-L-arginine] | < 20% |
| CC1(C)CC(N[C@@H](CCCNC(=N)N)C(=O)O)CC1S[C@@H]1O[C@H](CO)[C@H](O)[C@H](O)[C@H]1O (stereo partly drawn) [Example J6, Nα-[4,4-Dimethyl-3-(1-thio-β-D-galactopyranosyl)-cyclopent-1-yl]-L-arginine] | < 20% |
| CC(CC(C)S[C@@H]1O[C@H](CO)[C@H](O)[C@H](O)[C@H]1O)N[C@@H](CCCNC(=N)N)C(=O)O (stereo partly drawn) [Example J8, Nα-[4-(1-Thio-β-D-galactopyranosyl)pent-2-yl]-L-arginine] | < 20% |
| N=C(N)NCCC[C@H](NC1CCCC(S[C@@H]2O[C@H](CO)[C@H](O)[C@H](O)[C@H]2O)C1)C(=O)O (stereo partly drawn) [Example J10, Nα-[3-(1-Thio-β-D-galactopyranosyl)cyclohex-1-yl]-L-arginine] | < 20% |
